Source: EP0143016A1, “Derivatives of 4-(3-alkynyloxy-2-hydroxy-propyl)-piperazin-1-yl-N-phenyl acetamide, their preparation and their therapeutical use” (RIOM LABORATOIRES- C.E.R.M. "R.L.-CERM" - (S.A.), priority 1983, dated 1985)

Experiments:
[1] = system: effets chronotropes positifs de l'isoprénaline; experiment: Antitachycardic action in the anesthetized dog: inhibition of the positive chronotropic effects of isoprenaline; format: in vivo, chien; settings: duration of action (durée d'action), unit not given; isoprenaline tachycardia; dog anesthetized with chloralose; 5 mg.kg^-1 I.V.
Description: (§1) L'activité anti-angineuse des composés de l'invention a été étudiée chez l'animal en recherchant leurs effets hémodynamiques sur le chien anesthésié, conformément au protocole résumé ci-après.
(§2) Chez le chien anesthésié au chloralose (100 mg.kg^-1 I.V.), les paramètres suivants sont enregistrés : • - fréquence cardiaque à l'aide d'électrodes à E C G sous-cutanée reliées à un cardiotachymètre BECKMAN (dérivation D II) • - débit artériel coronaire enregistré par l'intermédiaire d'un débitmètre électromagnétique STATHAN® • - on étudie aussi l'action antitachycardisante en mesurant son activité inhibitrice des effets chronotropes positifs de l'isoprénaline.
(§3) Les différents paramètres sont enregistrés en continu sur un dynographe BECKMAN®, et on mesure en même temps la durée d'action.
(§4) Les composés de l'invention sont administrés par voie I.V. à la dose de 5 mg.kg^-1.
(§5) Les résultats enregistrés, exprimés sous forme de pourcentage de variation, sont résumés dans le tableau I ci-après.

chien anesthésié [2] = experiment: Hemodynamic effects in the anesthetized dog: heart rate; format: in vivo; settings: duration of action (durée d'action), unit not given; dog anesthetized with chloralose; 5 mg.kg^-1 I.V.
Description: as §1, §2, §3, §4, §5

chien anesthésié [3] = experiment: Hemodynamic effects in the anesthetized dog: coronary arterial flow; format: in vivo; settings: duration of action (durée d'action), unit not given; dog anesthetized with chloralose; 5 mg.kg^-1 I.V.
Description: as §1, §2, §3, §4, §5

SMILES | ANTITACHY-CARDIE D [1] | FREQUENCE CARDIAQUE D (chien anesthésié [2]) | DEBIT CORONAIRE D (chien anesthésié [3])
CC#CC1(OCC(O)CN2CCN(CC(=O)N(C)c3ccc(Cl)cc3C(=O)c3ccccc3)CC2)CCCCC1 (stereo not drawn) [compound 2] | 60 | 60 | 3
C#CC1(OCC(O)CN2CCN(CC(=O)Nc3ccc(Cl)cc3C(=O)c3ccccc3Cl)CC2)CCCCC1 (stereo not drawn) [compound 4, 4-[3-(1-ethynyl-cyclohexyloxy)-2-hydroxy-propyl]-piperazin-1-yl-N-[4-chloro-2-(2-chlorobenzoyl)-phenyl] acetamide] | 35 | >15 | 1
C#CC(C)(OCC(O)CN1CCN(CC(=O)Nc2ccc(Cl)cc2C(=O)c2ccccc2Cl)CC1)c1ccccc1 (stereo not drawn) [compound 6, 4-[3-(α-ethynyl-α-methyl-benzyloxy)-2-hydroxy-propyl]-piperazin-1-yl-N-[2-(2-chlorobenzoyl)-4-chloro-phenyl]acetamide] | 15 | >45 | 3
C#CC1(OCC(O)CN2CCN(CC(=O)N(C)c3ccc(Cl)cc3C(=O)c3ccccc3)CC2)CCCCC1 (stereo not drawn) [compound 7] | 5 | >15 | 2
CC#CC1(OCC(O)CN2CCN(CC(=O)Nc3ccc(Cl)cc3C(=O)c3ccccc3Cl)CC2)CCCCC1 (stereo not drawn) [compound 9] | 5 | 5 | 2
C#CC(C)(OCC(O)CN1CCN(CC(=O)N(C)c2ccc(Cl)cc2C(=O)c2ccccc2)CC1)c1ccccc1 (stereo not drawn) [compound 10] | 15 | 15 | 0,5
